According to US10611750B2, “Tetrahydroquinoline compositions as bet bromodomain inhibitors” (FORMA Therapeutics, Inc., priority 2013, dated 2020):

Key:
[1] = test system: acute myelocytic leukemia (AML) cell line MV4-11; experiment: Oncology cell growth assay (3-day proliferation, CellTiter-Glo); format: cell-based; settings: Homo sapiens, MV4-11, 72 h, MV4-11 cells, 3000 cells/well, compounds listed under IC50 range headings, read-out: MV411 IC50 (gIC50, inhibition of proliferation)
In short: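 A 3-day proliferation test used MV4-11 cells seeded at 3000 per well with eight compound concentrations (10 μM top, 3-fold dilution) at 37° C in 5% CO2. CellTiter-Glo luminescence defined viable cell signal. A four-parameter logistic curve against DMSO and background wells gave the gIC50.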

[2] = molecular target: T1, BRD4 Bromodomain 1 (BRD4 BD1) (Homo sapiens, UniProt O60885); experiment: AlphaScreen binding assay, BRD4 BD1; settings: His-tagged BRD4 BD1 50 nM, biotinylated H4 (1-21) K5/8/12/16 tetra-acetylated peptide 50 nM, compounds listed under IC50 range headings
T1 construct: 44-168 and BRD4 BD2
In short: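 An AlphaScreen competition format was used with His-BRD4 BD1 or BD2 and biotin-H4 K5/8/12/16-acetyl peptide, each at matched final levels of 50 nM (BD1) or 100 nM (BD2). Incubation in HEPES/NaCl buffer with 0.1% BSA and 0.01% Triton X-100 ran ≥1 h before IC50 determination.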

Compound	IC50 [1] [µM]	IC50 [2] [µM]
COC(=O)N1c2ccc(-c3cn(C)c(N4CCNCC4)n3)c(OC3CCC3)c2CC[C@@H]1C [I-315, (S)-methyl 5-cyclobutoxy-2-methyl-6-(1-methyl-2-(piperazin-1-yl)-1H-imidazol-4-yl)-3,4-dihydroquinoline-1(2H)-carboxylate]	< 0.5	0.1 to 1
COC(=O)N1c2ccc(-c3csc(N4CCNCC4)n3)c(OC3CCC3)c2CC[C@@H]1C [I-316, (S)-methyl 5-cyclobutoxy-2-methyl-6-(2-(piperazin-1-yl)thiazol-4-yl)-3,4-dihydroquinoline-1(2H)-carboxylate]	< 0.5	0.1 to 1
COC(=O)N1c2ccc(-c3csc(N4CC(O)C4)n3)c(OC3CCC3)c2CC[C@@H]1C [I-317, (S)-methyl 5-cyclobutoxy-6-(2-(3-hydroxyazetidin-1-yl)thiazol-4-yl)-2-methyl-3,4-dihydroquinoline-1(2H)-carboxylate]	0.5 to 1	0.1 to 1
C[C@H]1CCc2c(ccc(-n3cccn3)c2OC2CCC2)N1C(=O)C1CC1 [I-324, (S)-(5-cyclobutoxy-2-methyl-6-(1H-pyrazol-1-yl)-3,4-dihydroquinolin-1(2H)-yl)(cyclopropyl)methanone]	> 1	≥ 10
C[C@H]1CCc2c(ccc(-n3cccn3)c2Oc2ccccc2)N1C(=O)C1CC1 [I-325, (S)-cyclopropyl(2-methyl-5-phenoxy-6-(1H-pyrazol-1-yl)-3,4-dihydroquinolin-1(2H)-yl)methanone]	> 1	≥ 10
C[C@H]1CCc2c(ccc(-n3nccn3)c2OC2CCC2)N1C(=O)C1CC1 [I-326, (S)-(5-cyclobutoxy-2-methyl-6-(2H-1,2,3-triazol-2-yl)-3,4-dihydroquinolin-1(2H)-yl)(cyclopropyl)methanone]	> 1	≥ 10
C[C@H]1CCc2c(ccc(-n3nccn3)c2Oc2ccccc2)N1C(=O)C1CC1 [I-327, (S)-cyclopropyl(2-methyl-5-phenoxy-6-(2H-1,2,3-triazol-2-yl)-3,4-dihydroquinolin-1(2H)-yl)methanone]	> 1	≥ 10

Results, then the molecule that gave them:

IC50 [1] [µM]	IC50 [2] [µM]	Compound
< 0.5	0.1 to 1	C[C@H]1CCc2c(ccc(-c3cn(C)nn3)c2Oc2cc(F)ccc2F)N1C(=O)C1CC1 [I-318, (S)-cyclopropyl(5-(2,5-difluorophenoxy)-2-methyl-6-(1-methyl-1H-1,2,3-triazol-4-yl)-3,4-dihydroquinolin-1(2H)-yl)methanone]
< 0.5	1 to 10	C[C@H]1CCc2c(ccc(-c3cn(C)nn3)c2Oc2ccc(F)c(F)c2)N1C(=O)C1CC1 [I-319, (S)-cyclopropyl(5-(3,4-difluorophenoxy)-2-methyl-6-(1-methyl-1H-1,2,3-triazol-4-yl)-3,4-dihydroquinolin-1(2H)-yl)methanone]
< 0.5	0.1 to 1	C[C@H]1CCc2c(ccc(-c3cn(C)nn3)c2Oc2ccccc2F)N1C(=O)C1CC1 [I-320, (S)-cyclopropyl(5-(2-fluorophenoxy)-2-methyl-6-(1-methyl-1H-1,2,3-triazol-4-yl)-3,4-dihydroquinolin-1(2H)-yl)methanone]
< 0.5	0.1 to 1	C[C@H]1CCc2c(Oc3ccccc3)c(-c3cn(C)nn3)cc(F)c2N1C(=O)C1CC1 [I-321, (S)-cyclopropyl(8-fluoro-2-methyl-6-(1-methyl-1H-1,2,3-triazol-4-yl)-5-phenoxy-3,4-dihydroquinolin-1(2H)-yl)methanone]
< 0.5	0.1 to 1	COC(=O)N1c2c(F)cc(-c3cn(C)nn3)c(Oc3ccccc3)c2CC[C@@H]1C [I-322, (S)-methyl 8-fluoro-2-methyl-6-(1-methyl-1H-1,2,3-triazol-4-yl)-5-phenoxy-3,4-dihydroquinoline-1(2H)-carboxylate]
< 0.5	1 to 10	CC(=O)N1c2c(F)cc(-c3cn(C)nn3)c(Oc3ccccc3)c2CC[C@@H]1C [I-323, (S)-1-(8-fluoro-2-methyl-6-(1-methyl-1H-1,2,3-triazol-4-yl)-5-phenoxy-3,4-dihydroquinolin-1(2H)-yl)ethanone]
